Measured values from EP0036650A2, “Cephalosporin derivatives, process for their preparation, corresponding compositions, their use in the treatment of diseases and intermediates” (F. HOFFMANN-LA ROCHE & CO. Aktiengesellschaft, priority 1980, dated 1981).
Converted amounts (≈) assume the structure as drawn.

Tests used:
[1] = system: Enterobacter cloacae; assay: Minimum inhibitory concentration in vitro; type: cell-based; details: ß-Lactamase bildende Stämme
From the text: (§1) Zum Nachweis der antimikrobiellen Wirksamkeit der erwähnten Produkte wurde das (6R,7R)-7-[2-(2-Amino-5-thiazolyl)-2-[(Z)-methoxyimino]acetamido]-3-[[(2,5-dihydro-2-methyl-5-oxo-as-triazin-3-yl)thio]methyl]-8-oxo-5-thia-1-azabicyclo[4.2.0]oct-2-en-2-carbonsäure-Natriumsalz auf seine Aktivität in vitro gegen verschiedene Krankheitserreger getestet. Nachstehend sind die entsprechenden Mindesthemmkonzentrationen (MIC; µg/ml) zusammengestellt: […]

[2] = system: Escherichia coli; assay: Minimum inhibitory concentration in vitro; type: cell-based; details: ß-Lactamase bildende Stämme
From the text: as §1

[3] = system: Haemophilus influenzae; assay: Minimum inhibitory concentration in vitro; type: cell-based
From the text: as §1

[4] = system: Neisseria gonorrhoeae; assay: Minimum inhibitory concentration in vitro; type: cell-based
From the text: as §1

[5] = system: Proteus mirabilis; assay: Minimum inhibitory concentration in vitro; type: cell-based; details: ß-Lactamase bildende Stämme
From the text: as §1

[6] = system: Proteus vulgaris; assay: Minimum inhibitory concentration in vitro; type: cell-based; details: ß-Lactamase bildende Stämme
From the text: as §1

[7] = system: Pseudomonas aeruginosa Stamm 1; assay: Minimum inhibitory concentration in vitro; type: cell-based; details: STAMM1, ß-Lactamase bildende Stämme
From the text: as §1

[8] = system: Pseudomonas aeruginosa Stamm 2; assay: Minimum inhibitory concentration in vitro; type: cell-based; details: STAMM2, ß-Lactamase bildende Stämme
From the text: as §1

[9] = system: Serratia marcescens; assay: Minimum inhibitory concentration in vitro; type: cell-based; details: ß-Lactamase bildende Stämme
From the text: as §1

[10] = system: Staphylococcus aureus; assay: Minimum inhibitory concentration in vitro; type: cell-based
From the text: as §1

[11] = Toxicity (lethal dose); type: in vivo

Structure (SMILES): CO/N=C(\C(=O)N[C@@H]1C(=O)N2C(C(=O)O)=C(CSc3nc(=O)cnn3C)CS[C@H]12)c1csc(N)n1 [(6R,7R)-7-[2-(2-Amino-4-thiazolyl)-2-[(Z)-methoxyimino]ace-tamido]-3-[[(2,5-dihydro-2-methyl-5-oxo-as-triazin-3-yl)thio]methyl]-8-oxo-5-thia-1-azabicyclo[4.2.0]oct-2-en-2-carbonsäure-Natriumsalz]
- MIC [1]: 2.5 µg/mL (≈ 4.64 µM)
- MIC [2]: 0.04 µg/mL (≈ 0.0743 µM)
- MIC [3]: 0.02 µg/mL (≈ 0.0371 µM)
- MIC [4]: 0.02 µg/mL (≈ 0.0371 µM)
- MIC [5]: 0.04 µg/mL (≈ 0.0743 µM)
- MIC [6]: 0.02 µg/mL (≈ 0.0371 µM)
- MIC [7]: 40 µg/mL (≈ 74.3 µM)
- MIC [8]: 40 µg/mL (≈ 74.3 µM)
- MIC [9]: 0.16 µg/mL (≈ 0.297 µM)
- MIC [10]: 2.5 µg/mL (≈ 4.64 µM)
- LD100 ([11]; i.v.): 1000 mg/kg
- LD100 ([11]; p.o.): >5000 mg/kg
- LD100 ([11]; s.c.): >5000 mg/kg
